# Assay results taken from patent US11376249B2 (priority 2017, dated 2022).
# Legend:
# Mu opiate receptor = Mu opiate receptor (Homo sapiens, UniProt P35372); assay type: binding
# 5-HT2 receptor = system: 5-HT2 receptor; design: species or system mice; conditions: mouse, in vivo, po
# D1 = D1 (Homo sapiens, UniProt P21728); assay: biochemical; conditions: read-out: inhibition D1
# D2 = D2 (Homo sapiens, UniProt P14416); assay: biochemical; conditions: read-out: inhibition D2
# [1] = Rat tolerance/dependence study (28 day)
# [2] = system: ERK2 phosphorylation at Thr183 and Tyr185; assay: CNS phosphoprotein profile, ERK2; assay type: in vivo, mice; conditions: 3 mg/kg, nucleus accumbens
# Description: (§1) A comprehensive molecular phosphorylation study is also carried out to examine the central nervous system (CNS) profile of the compounds of Example 1 and Example 3. The extent of protein phosphorylation for selected key central nervous system proteins is measured in mice nucleus accumbens.
# (§2) Mice were killed 30 minutes to 2 hours post-injection by focused microwave cranial irradiation, which preserves brain phosphoprotein as it exists at the time of death. The nucleus accumbens was then dissected from each mouse brain, sliced and frozen in liquid nitrogen. Samples were further prepared for phosphoprotein analysis via SDS-PAGE electrophoresis followed by phosphoprotein-specific immunoblotting, as described in Zhu H, et al., Brain Res. 2010 Jun. 25; 1342:11-23. Phosphorylation at each site was quantified, normalized to total levels of the protein (non-phosphorylated), and expressed as percent of the level of phosphorylation in vehicle-treated control mice.
# [3] = system: tyrosine hydroxylase phosphorylation at Ser40; assay: CNS phosphoprotein profile, TH; assay type: in vivo, mice; conditions: 3 mg/kg, 30 or 60 minutes, nucleus accumbens
# Description: as §1, §2
# [4] = system: NR2B phosphorylation at Tyr1472; assay: CNS phosphoprotein profile, NR2B; assay type: in vivo, mice; conditions: 3 mg/kg, 30-60 minutes, nucleus accumbens
# Description: as §1, §2
# [5] = system: GluR1 phosphorylation at Ser845; assay: CNS phosphoprotein profile, GluR1; assay type: in vivo, mice; conditions: 3 mg/kg, nucleus accumbens
# Description: as §1, §2
# [6] = Mouse marble-burying study (OCD model); assay type: in vivo, mice; conditions: 20 mg/kg intraperitoneal just prior to test
# Source text: The marble burying test is used to measure repetitive and anxiety-related behavior in rodents. It is based on the observation that rats and mice will bury either harmful or harmless objects in their bedding, and it has been used as an animal model to measure the effect of pharmacological interventions in treatment of repetitive behavior disorders, such as OCD.
# MPEP is a selective mGluR5 glutamate receptor antagonist. […] Mice in groups (1) are orally administered the vehicle, and mice in group (4) are given an intraperitoneal injection of MPEP just prior to the start of the test.
# The test is conducted in rectangular cages with 4-5 cm of wood chip bedding in a room with the window shades lowered and the door closed to minimize distractions. Fifteen clean marbles are evenly spaced on top of the bedding in three rows of five marbles. One mouse is placed in each cage. The mouse and cage is left undisturbed for 30 minutes. At the end of the test, the mouse is removed and the number of marbles buried to at least ⅔ of their depth is counted.
# Chain of D2 (P14416 whole entry): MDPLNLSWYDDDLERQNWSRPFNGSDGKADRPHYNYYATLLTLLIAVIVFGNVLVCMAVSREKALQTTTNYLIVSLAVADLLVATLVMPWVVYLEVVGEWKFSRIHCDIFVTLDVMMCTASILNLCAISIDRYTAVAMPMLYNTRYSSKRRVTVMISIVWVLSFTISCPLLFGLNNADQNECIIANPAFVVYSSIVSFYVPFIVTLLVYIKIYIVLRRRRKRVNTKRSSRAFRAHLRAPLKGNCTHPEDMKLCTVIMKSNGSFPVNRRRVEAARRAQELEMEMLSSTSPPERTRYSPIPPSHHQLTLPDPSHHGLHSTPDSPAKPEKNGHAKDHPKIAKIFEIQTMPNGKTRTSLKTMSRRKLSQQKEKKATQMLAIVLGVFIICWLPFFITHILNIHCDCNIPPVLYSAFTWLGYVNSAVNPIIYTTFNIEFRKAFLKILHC
# Chain of Mu opiate receptor (P35372 whole entry): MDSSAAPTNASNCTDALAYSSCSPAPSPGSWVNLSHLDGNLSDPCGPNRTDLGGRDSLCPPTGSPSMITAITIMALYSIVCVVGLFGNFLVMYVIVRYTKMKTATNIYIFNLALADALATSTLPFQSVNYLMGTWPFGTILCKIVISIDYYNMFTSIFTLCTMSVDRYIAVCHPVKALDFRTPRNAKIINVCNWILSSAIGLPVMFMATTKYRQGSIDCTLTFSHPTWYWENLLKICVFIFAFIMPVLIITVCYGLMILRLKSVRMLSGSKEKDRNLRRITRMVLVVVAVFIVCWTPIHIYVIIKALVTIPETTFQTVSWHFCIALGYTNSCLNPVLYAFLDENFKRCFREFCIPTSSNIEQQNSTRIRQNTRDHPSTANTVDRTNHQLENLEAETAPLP
# Chain of D1 (P21728 whole entry): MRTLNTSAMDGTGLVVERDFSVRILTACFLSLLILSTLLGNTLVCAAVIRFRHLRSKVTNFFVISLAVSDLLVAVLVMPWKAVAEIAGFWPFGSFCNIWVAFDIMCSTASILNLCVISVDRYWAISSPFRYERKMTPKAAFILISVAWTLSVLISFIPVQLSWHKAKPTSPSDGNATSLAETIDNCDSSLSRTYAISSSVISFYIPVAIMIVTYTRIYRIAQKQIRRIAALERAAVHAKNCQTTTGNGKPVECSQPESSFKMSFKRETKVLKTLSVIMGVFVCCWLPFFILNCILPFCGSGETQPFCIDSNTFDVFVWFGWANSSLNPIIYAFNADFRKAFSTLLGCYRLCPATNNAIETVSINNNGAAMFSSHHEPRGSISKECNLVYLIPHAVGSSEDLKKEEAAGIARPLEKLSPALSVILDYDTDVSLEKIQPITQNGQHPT
smiles,measurement,setting,value
"CN1CCN2c3c(cccc31)[C@@H]1CN(CCCC(=O)c3ccc(F)cc3)CC[C@@H]12 [Formula A, reference compound]",activity at the Mu opiate receptor,Mu opiate receptor,not active
"CN1CCN2c3c(cccc31)[C@@H]1CN(CCCC(O)c3ccc(F)cc3)CC[C@@H]12 (stereo partly shown) [Formula B, reference compound]",EC50 for reducing DOI-induced head twitches,5-HT2 receptor,0.31 mg/kg
"O=C1CN2c3c(cccc3[C@@H]3CN(CCCC(O)c4ccc(F)cc4)CC[C@@H]32)N1 (stereo partly drawn) [Example 2, 4-((6bR,10aS)-2-oxo-2,3,6b,9,10,10a-hexahydro-1H,7H-pyrido[3′,4′:4,5]pyrrolo[1,2,3-de]quinoxalin-8-yl)-1-(4-fluoro-phenyl)-butan-1-ol]",inhibition at 0.1 µM,D1,13%
same,inhibition at […],D2,11%
"O=C1CN2c3c(cccc3[C@@H]3CN(CCCOc4ccc(F)cc4)CC[C@@H]32)N1 [Example 3, (6bR,10aS)-8-(3-(4-fluorophenoxy)propyl)-6b,7,8,9,10,10a-hexahydro-1H-pyrido[3′,4′:4,5]pyrrolo[1,2,3-de]quinoxalin-2(3H)-one]",predominant behavioral and physical effects,"[1]; 0.3 mg/kg, dosing phase","hunched posture, Straub tail and piloerection"
same,tolerance,"[1]; 0.3 and 3 mg/kg s.c., 28 days",does not produce tolerance
same,"effect on body weight, food and water intake or body temperature","[1]; 0.3 and 3 mg/kg s.c., on-dose or withdrawal phase",no significant effect
same,EC50 for reducing DOI-induced head twitches,5-HT2 receptor,0.44 mg/kg
"O=C1CN2c3c(cccc3[C@@H]3CN(CCCC(=O)c4ccc(F)cc4)CC[C@@H]32)N1 [Example 1, 4-((6bR,10aS)-2-oxo-2,3,6b,9,10,10a-hexahydro-1H,7H-pyrido[3′,4′:4,5]pyrrolo[1,2,3-de]quinoxalin-8-yl)-1-(4-fluoro-phenyl)-butan-1-one]",ERK2 phosphorylation at Thr183 and Tyr185,[2],slight decrease
same,effect on tyrosine hydroxylase phosphorylation at Ser40,[3],neither the compound of Example 1 nor of Example 3 has a significant effect
same,effect on NR2B phosphorylation at Tyr1472,[4],neither the compound of Example 1 nor of Example 3 has a significant effect
same,EC50 for reducing DOI-induced head twitches,5-HT2 receptor,0.23 mg/kg
same,GluR1 phosphorylation at Ser845,[5],slight increase
same,inhibition at […],D2,47%
"CN1CC[C@]23c4c5ccc(O)c4O[C@H]2[C@@H](O)C=C[C@H]3[C@H]1C5 [Morphine, reference compound]",tolerance and dependence,[1]; 30 mg/kg orally twice per day,clear signs of tolerance and dependence
"Cc1cccc(C#Cc2ccccc2)n1 [MPEP, 2-methyl-6-(phenylethynyl)pyridine]",Marbles Buried,[6],0.2
